From patent US7078499B2, “Nucleotide analogues comprising a reporter moiety and a polymerase enzyme blocking moiety” (GE Healthcare UK Limited, priority 2000, dated 2006)

What was measured:
Format in all cases: biochemical
[1] = target: T1, phi-29 DNA polymerase (Bacillus phage phi29, UniProt P03680); experiment: Mesophilic DNA polymerase primer extension, phi-29; set-up: key to result of incorporation (termination / further chain extension): T: Incorporation results in termination; E: Incorporation permits further chain extension; T/E: Predominant product is primer extended by one base, but evidence of some further extension also observed; conditions: DNA template, 37° C. for 20–40 minutes; for primer extended by at least one base within assay time (grade): TTP replaced entirely by test compound
T1 construct: purchased AP Biotech
T1 sequence (P03680 whole entry): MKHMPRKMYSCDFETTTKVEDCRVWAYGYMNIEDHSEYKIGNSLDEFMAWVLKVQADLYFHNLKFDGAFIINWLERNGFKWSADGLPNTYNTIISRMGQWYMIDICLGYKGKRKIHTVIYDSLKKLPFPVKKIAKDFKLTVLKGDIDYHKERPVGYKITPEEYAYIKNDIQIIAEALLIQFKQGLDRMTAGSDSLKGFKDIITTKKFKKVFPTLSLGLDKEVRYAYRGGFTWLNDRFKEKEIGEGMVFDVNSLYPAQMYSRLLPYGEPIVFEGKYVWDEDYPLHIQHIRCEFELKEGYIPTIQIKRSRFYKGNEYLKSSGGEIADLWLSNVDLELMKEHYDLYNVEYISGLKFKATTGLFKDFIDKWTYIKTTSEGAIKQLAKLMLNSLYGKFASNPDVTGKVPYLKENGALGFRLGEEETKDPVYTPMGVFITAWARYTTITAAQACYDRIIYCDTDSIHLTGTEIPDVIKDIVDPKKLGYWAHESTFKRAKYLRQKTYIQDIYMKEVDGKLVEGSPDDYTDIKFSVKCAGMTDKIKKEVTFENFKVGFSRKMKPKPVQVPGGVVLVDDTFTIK
Procedure: (§1) DNA polymerase assays were performed using Sequence 1 as primer and Sequence 2 as template. • Sequence 1 5′[Cy3]TAACTCATTAACAGGATC 3′ • Sequence 2 5′AT TCGCGGTATTCTGGTATGAAGCTTTTAGATCCTGTTAATGAGTTA GTA3′
(§2) The template (Sequence 2) was designed such that the base (underlined) immediately adjacent to the 3′ end of the hybridised primer is complementary to the nucleotide test compound. Nucleotide test compounds were compounds (6) (4′-C-(glycylaminomethyl)thymidine triphosphate), (8) (4′-C-(N-trifluoroacetyaminomethyl)thymidine triphosphate) and (9) (4′-C-(aminomethyl)thymidine triphosphate) as described above.
(§3) Primer extension reactions were performed using the above primers in the presence of 40 to 80 μM of nucleotide triphosphates. Positive control reactions contained all four native nucleotide triphosphates. For the other reactions the TTP was replaced with either a 2:1 ratio of […] for the terminator control, or entirely by the test compound The enzymes were used at a final concentration of 0.175 units/μl and a magnesium ion concentration of 2.5 mM in buffers supplied by the manufacturer. The primer and template concentrations were 0.5 pmol/μl and 2 pmol/μl respectively.
(§4) Extension reactions preformed with mesophilic polymerases were carried out by mixing all the components of the reaction except the enzyme and heating to 70° C. for 5 min. After the reactions had cooled to room temperature 0.175 units of the enzyme were added and the reactions heated to 37° C. for 20–40 minutes. The following enzymes were used: T7 DNA polymerase (T7); Sequenase 2™ (Seq); Klenow fragment of DNA polymerase 1 (Klen); phi-29 DNA polymerase (Phi-29); T4 DNA polymerase (T4) (all from AP Biotech) and Bst DNA polymerase (Bst) (Cambio Ltd).
(§5) The reactions were stopped by adding a 0.5 volume aliquot of 80% formamide containing 0.1% (w/v) bromophenol blue and 0.1% (w/v) cresol blue. The reaction products were separated by denaturing gel electrophoresis at a constant power of 45 W on 16% polyacrylamide gels containing 50% urea.
(§6) Gels were scanned for Cy3 fluorescence on a Molecular Dynamics Fluorimager and the data analysed using Molecular Dynamics ImageQuant 5 software.
(§7) The incorporation of a test nucleotide triphosphate results in the appearance on a polyacrylamide gel of a single band corresponding to a single base extension product. If, however, the enzyme adds additional bases then further bands would be observed that corresponded to either the full-length product or positions of other complementary bases in the template.

[2] = test system: AMV RT; experiment: Mesophilic reverse transcriptase reaction, AMV RT; set-up: key: −: No extension within assay time; +/−: up to 25% of primer extended by at least one base within assay time; +: up to 50% of primer extended by at least one base within assay time; ++: up to 75% of primer extended by at least one base within assay time; +++: essentially all primer extended by at least one base within assay time; conditions: RNA template, final enzyme concentration of 4 units/μl
Procedure: as §1, §2, §3, §4
Reverse transcriptase reactions were performed essentially as described above for thermophilic and mesophilic enzymes. The template for these reactions was the RNA equivalent of sequence 2. […]
Gels were scanned for Cy3 fluorescence on a Molecular Dynamics Fluorimager and the data analysed using Molecular Dynamics ImageQuant 5 software. […]

[3] = target: T2, Tth DNA polymerase (Thermus thermophilus, UniProt P52028); experiment: Thermostable DNA polymerase primer extension, Tth; set-up: key to result of incorporation (termination / further chain extension): T: Incorporation results in termination; E: Incorporation permits further chain extension; T/E: Predominant product is primer extended by one base, but evidence of some further extension also observed; conditions: DNA template, 45° C. for 20–40 minutes; for primer extended by at least one base within assay time (grade): TTP replaced entirely by test compound
T2 construct: purchased APBiotech
T2 sequence (P52028 whole entry): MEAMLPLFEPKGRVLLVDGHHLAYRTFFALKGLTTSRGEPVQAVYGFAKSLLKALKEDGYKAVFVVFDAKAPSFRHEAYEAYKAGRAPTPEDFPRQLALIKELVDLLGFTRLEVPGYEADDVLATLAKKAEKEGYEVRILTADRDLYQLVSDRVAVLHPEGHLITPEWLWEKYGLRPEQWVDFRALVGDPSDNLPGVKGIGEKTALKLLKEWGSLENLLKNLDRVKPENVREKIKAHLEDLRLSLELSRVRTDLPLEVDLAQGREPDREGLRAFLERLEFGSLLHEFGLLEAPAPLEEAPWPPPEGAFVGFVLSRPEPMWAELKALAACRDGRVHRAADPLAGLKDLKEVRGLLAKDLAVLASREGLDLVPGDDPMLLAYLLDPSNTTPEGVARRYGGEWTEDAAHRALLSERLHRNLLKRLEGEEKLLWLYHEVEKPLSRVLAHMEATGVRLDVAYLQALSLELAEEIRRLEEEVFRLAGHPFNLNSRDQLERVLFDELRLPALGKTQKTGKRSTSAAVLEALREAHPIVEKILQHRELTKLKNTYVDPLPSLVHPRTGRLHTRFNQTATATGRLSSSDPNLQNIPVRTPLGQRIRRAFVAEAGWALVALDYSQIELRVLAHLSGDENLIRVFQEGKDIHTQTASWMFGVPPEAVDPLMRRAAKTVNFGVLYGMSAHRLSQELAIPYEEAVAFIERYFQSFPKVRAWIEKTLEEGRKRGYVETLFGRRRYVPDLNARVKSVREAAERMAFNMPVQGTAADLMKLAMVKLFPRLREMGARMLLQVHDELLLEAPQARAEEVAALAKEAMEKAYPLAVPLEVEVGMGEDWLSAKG
Procedure: as §1, §2, §3
(§8) Extension reactions with thermophilic enzymes were performed by initially denaturing the fully assembled reactions at 70° C. for 5 min. followed by 45° C. for 20–40 minutes. The following enzymes were used: Taq DNA polymerase (Taq); Thermosequenase (TS); Thermosequenase II (TSII); Thermosequenase E (TSE), Tfl DNA polymerase (Tfl); Tth DNA polymerase (Tth), deltaTts DNA polymerase (deltaTts), deltaTts D DNA polymerase (dettaTTSD) (all from APBiotech); Pfu DNA polymerase (Pfu) (Stratagene Ltd); Vent™ DNA polymerase (Vent) (New England Biolabs).
as §5, §6, §7

[4] = test system: Thermosequenase II; experiment: Thermostable polymerase under reverse transcription conditions, TS II; set-up: key to result of incorporation (termination / further chain extension): T: Incorporation results in termination; E: Incorporation permits further chain extension; T/E: Predominant product is primer extended by one base, but evidence of some further extension also observed; conditions: RNA template, 2.5 mM Manganese ions; for primer extended by at least one base within assay time (grade): Tth reaction buffer
Procedure: as §1, §2, §3, §8
(§9) Reverse transcriptase reactions were performed essentially as described above for thermophilic and mesophilic enzymes. The template for these reactions was the RNA equivalent of sequence 2. All the thermophilic enzymes were assayed in Tth reaction buffer (Cambio Ltd, Cambridge UK) containing 2.5 mM Manganese ions. The following enzymes were used: Thermosequenase (TS1); Thermosequenase II (TSII); delta Tts DNA polymerase (deltaTts); delta Tts D DNA polymerase (deltaTtsD) (all from APBiotech); Retrotherm reverse transcriptase (Retroth) (Cambio Ltd); Tth DNA polymerase (Tth) (Cambio Ltd.).
as §5, §6, §7

[5] = target: T3, Tfl DNA polymerase (Thermus thermophilus, UniProt P30313); experiment: Thermostable DNA polymerase primer extension, Tfl; set-up: key to result of incorporation (termination / further chain extension): T: Incorporation results in termination; E: Incorporation permits further chain extension; T/E: Predominant product is primer extended by one base, but evidence of some further extension also observed; conditions: DNA template, 45° C. for 20–40 minutes; for primer extended by at least one base within assay time (grade): TTP replaced entirely by test compound
T3 construct: purchased APBiotech
T3 sequence (P30313 whole entry): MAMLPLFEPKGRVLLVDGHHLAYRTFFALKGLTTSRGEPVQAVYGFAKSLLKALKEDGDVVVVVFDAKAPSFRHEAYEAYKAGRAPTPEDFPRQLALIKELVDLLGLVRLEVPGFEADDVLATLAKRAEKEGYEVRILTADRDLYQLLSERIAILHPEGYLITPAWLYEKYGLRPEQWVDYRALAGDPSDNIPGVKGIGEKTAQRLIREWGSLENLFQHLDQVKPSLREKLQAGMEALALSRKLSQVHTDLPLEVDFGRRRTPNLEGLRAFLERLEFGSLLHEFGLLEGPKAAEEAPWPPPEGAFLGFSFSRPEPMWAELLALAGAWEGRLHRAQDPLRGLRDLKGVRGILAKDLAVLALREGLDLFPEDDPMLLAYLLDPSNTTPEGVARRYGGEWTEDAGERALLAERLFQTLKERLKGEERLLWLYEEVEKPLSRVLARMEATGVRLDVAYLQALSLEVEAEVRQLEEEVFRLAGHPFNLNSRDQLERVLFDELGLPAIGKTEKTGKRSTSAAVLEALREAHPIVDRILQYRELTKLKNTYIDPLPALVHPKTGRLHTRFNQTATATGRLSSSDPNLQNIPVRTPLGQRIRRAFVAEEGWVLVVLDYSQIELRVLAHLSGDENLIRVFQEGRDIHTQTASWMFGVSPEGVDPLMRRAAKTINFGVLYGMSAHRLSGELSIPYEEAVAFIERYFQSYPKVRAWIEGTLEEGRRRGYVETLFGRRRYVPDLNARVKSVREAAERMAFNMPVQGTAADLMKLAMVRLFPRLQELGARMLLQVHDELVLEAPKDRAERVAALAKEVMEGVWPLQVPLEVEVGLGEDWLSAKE
Procedure: as §1, §2, §3, §8, §5, §6, §7

[6] = test system: delta Tts DNA polymerase; experiment: Thermostable polymerase under reverse transcription conditions, delta Tts; set-up: key to result of incorporation (termination / further chain extension): T: Incorporation results in termination; E: Incorporation permits further chain extension; T/E: Predominant product is primer extended by one base, but evidence of some further extension also observed; key to primer extended by at least one base within assay time (grade): −: No extension within assay time; +/−: up to 25% of primer extended by at least one base within assay time; +: up to 50% of primer extended by at least one base within assay time; ++: up to 75% of primer extended by at least one base within assay time; +++: essentially all primer extended by at least one base within assay time; conditions: RNA template, 2.5 mM Manganese ions; for primer extended by at least one base within assay time (grade): Tth reaction buffer
Procedure: as §1, §2, §3, §8, §9, §5, §6, §7

[7] = test system: Vent™ DNA polymerase; experiment: Thermostable DNA polymerase primer extension, Vent; set-up: key to result of incorporation (termination / further chain extension): T: Incorporation results in termination; E: Incorporation permits further chain extension; T/E: Predominant product is primer extended by one base, but evidence of some further extension also observed; conditions: DNA template, 45° C. for 20–40 minutes; for primer extended by at least one base within assay time (grade): TTP replaced entirely by test compound
Procedure: as §1, §2, §3, §8, §5, §6, §7

Question: Which results are given for “4′-C-(Aminomethyl)thymidine triphosphate [compound (9)]”?
Answer: result of incorporation (termination / further chain extension) [1]: T; primer extended by at least one base within assay time (grade) [1]: +/− (up to 25% of primer extended by at least one base within assay time); primer extended by at least one base within assay time (grade) [2]: −; result of incorporation (termination / further chain extension) [3]: T; primer extended by at least one base within assay time (grade) [3]: ++ (up to 75% of primer extended by at least one base within assay time); result of incorporation (termination / further chain extension) [4]: E; primer extended by at least one base within assay time (grade) [4]: ++ (up to 75% of primer extended by at least one base within assay time); result of incorporation (termination / further chain extension) [5]: T; primer extended by at least one base within assay time (grade) [5]: +/− (up to 25% of primer extended by at least one base within assay time); result of incorporation (termination / further chain extension) [6]: T; primer extended by at least one base within assay time (grade) [6]: +++; result of incorporation (termination / further chain extension) [7]: T; primer extended by at least one base within assay time (grade) [7]: +/− (up to 25% of primer extended by at least one base within assay time)

Question: What does the source list for “4′-C-(Glycylaminomethyl)thymidine triphosphate [compound (6)]”?
Answer: result of incorporation (termination / further chain extension) [1]: T; primer extended by at least one base within assay time (grade) [1]: +/− (up to 25% of primer extended by at least one base within assay time); primer extended by at least one base within assay time (grade) [2]: −; result of incorporation (termination / further chain extension) [3]: T; primer extended by at least one base within assay time (grade) [3]: + (up to 50% of primer extended by at least one base within assay time); result of incorporation (termination / further chain extension) [4]: E; primer extended by at least one base within assay time (grade) [4]: + (up to 50% of primer extended by at least one base within assay time); result of incorporation (termination / further chain extension) [5]: T; primer extended by at least one base within assay time (grade) [5]: +/− (up to 25% of primer extended by at least one base within assay time); result of incorporation (termination / further chain extension) [6]: T; primer extended by at least one base within assay time (grade) [6]: +++; result of incorporation (termination / further chain extension) [7]: T; primer extended by at least one base within assay time (grade) [7]: +/− (up to 25% of primer extended by at least one base within assay time)

Question: What does the source list for `Cc1cn([C@H]2C[C@H](O)[C@@](CNC(=O)C(F)(F)F)(COP(=O)(O)OP(=O)(O)OP(=O)(O)O)O2)c(=O)[nH]c1=O` [compound (8), 4′-C-(N-trifluoroacetylaminomethyl)thymidine triphosphate]?
Answer: result of incorporation (termination / further chain extension) [1]: T; primer extended by at least one base within assay time (grade) [1]: +/− (up to 25% of primer extended by at least one base within assay time); primer extended by at least one base within assay time (grade) [2]: −; result of incorporation (termination / further chain extension) [3]: T; primer extended by at least one base within assay time (grade) [3]: ++ (up to 75% of primer extended by at least one base within assay time); result of incorporation (termination / further chain extension) [4]: E; primer extended by at least one base within assay time (grade) [4]: + (up to 50% of primer extended by at least one base within assay time); result of incorporation (termination / further chain extension) [5]: T; primer extended by at least one base within assay time (grade) [5]: +/− (up to 25% of primer extended by at least one base within assay time); result of incorporation (termination / further chain extension) [6]: T; primer extended by at least one base within assay time (grade) [6]: +++; result of incorporation (termination / further chain extension) [7]: T; primer extended by at least one base within assay time (grade) [7]: +/− (up to 25% of primer extended by at least one base within assay time)
